Test systems include MCF7 breast; SNB-19 CNS; SK-MEL-28 melanoma; NCI-H226 lung; U251 CNS; SK-MEL-2 melanoma; CCRF-CEM leukemia; MDA-MB-231 breast; K-562 leukemia; UACC-62 melanoma; MALME-3M melanoma; 786-0 renal; OVCAR-3 ovarian; OVCAR-5 ovarian; UACC-257 melanoma; MOLT-4 leukemia; ACHN renal; IGROV1 ovarian; HL-60(TB) leukemia; A498 renal.
Test in all cases: inhibition of tumour cell growth, NCI panel, 48 h

Each structure is given as a SMILES string.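 Exposure lasted 48 hours, with cells grown in 96-well plates and compounds tested at five concentrations. TGI denotes the concentration required for complete inhibition of growth.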 A value given as a limit tells only on which side of the number the result lay.

For `CCOC(=O)CC(=O)Nc1cccc2sc3ncccc3c(=O)c12`, the TGI with MCF7 breast, in the assay on SNB-19 CNS, with SK-MEL-28 melanoma, with NCI-H226 lung, in the assay on U251 CNS and in the assay with SK-MEL-2 melanoma was over 100 µM in each case. Further, the TGI in the assay on CCRF-CEM leukemia, with MDA-MB-231 breast, in the assay with K-562 leukemia, in the assay with UACC-62 melanoma, with MALME-3M melanoma and in the assay with 786-0 renal was over 100 µM each time. Besides, the TGI in the assay with OVCAR-3 ovarian, with OVCAR-5 ovarian, in the assay on UACC-257 melanoma, in the assay on MOLT-4 leukemia and in the assay on ACHN renal was over 100 µM throughout.
As for `CN(/N=C/C=N/N(C)C1=NCCCN1)C1=NCCCN1`, the TGI in the assay on MCF7 breast, in the assay on SNB-19 CNS, with SK-MEL-28 melanoma, in the assay with NCI-H226 lung, in the assay with U251 CNS and in the assay with CCRF-CEM leukemia was over 100 µM throughout. The TGI in the assay with MDA-MB-231 breast, in the assay on K-562 leukemia, in the assay on UACC-62 melanoma, in the assay on MALME-3M melanoma, with 786-0 renal and in the assay with OVCAR-3 ovarian was over 100 µM each time. The TGI in the assay on IGROV1 ovarian, with OVCAR-5 ovarian, in the assay on UACC-257 melanoma, with MOLT-4 leukemia and in the assay with ACHN renal was over 100 µM throughout.
Consider `CC(=O)O[C@H]1CC[C@H]2[C@@H]3CCC4=C/C(=N/OCCN(C)C)CC[C@]4(C)[C@H]3CC[C@]12C`, for which the TGI in the assay on MCF7 breast came out at 17.9 µM; in the assay on SNB-19 CNS, 22.4 µM; with SK-MEL-28 melanoma, 27.8 µM; in the assay on NCI-H226 lung, 15.7 µM; in the assay with U251 CNS it was 26.4 µM; with SK-MEL-2 melanoma, 26.9 µM. Besides, the TGI with CCRF-CEM leukemia was 10.1 µM; in the assay on MDA-MB-231 breast, 39.5 µM; in the assay on K-562 leukemia, over 21.2 µM; in the assay on UACC-62 melanoma, 15.4 µM; with MALME-3M melanoma, 28.6 µM; in the assay on 786-0 renal, 22.8 µM. For the same compound, the TGI with OVCAR-3 ovarian was 26.7 µM; in the assay with HL-60(TB) leukemia, 3.68 µM; in the assay with IGROV1 ovarian it was 26.2 µM; in the assay with OVCAR-5 ovarian, 31.9 µM; in the assay with UACC-257 melanoma, 21.1 µM; with MOLT-4 leukemia, 13 µM. In the assay on ACHN renal, this compound gave a TGI of 26.2 µM.
On to `Cc1c(NC(=O)CSC(=S)N(C)C)c(=O)n(-c2ccccc2)n1C`, for which the TGI in the assay with MCF7 breast, with SNB-19 CNS, with SK-MEL-28 melanoma, in the assay with NCI-H226 lung, in the assay on U251 CNS and with SK-MEL-2 melanoma was over 100 µM throughout. The TGI with CCRF-CEM leukemia, in the assay with MDA-MB-231 breast, in the assay on K-562 leukemia, with MALME-3M melanoma, with 786-0 renal and in the assay with OVCAR-3 ovarian was over 100 µM each time. The TGI with IGROV1 ovarian, with OVCAR-5 ovarian, with UACC-257 melanoma, in the assay with MOLT-4 leukemia and with ACHN renal was over 100 µM each time.
As to `CCCCCCc1cc2cc(-c3cn4c(n3)sc3ccccc34)c(=O)oc2cc1O`, the TGI in the assay on MCF7 breast, in the assay with SNB-19 CNS, with SK-MEL-28 melanoma, in the assay on NCI-H226 lung, with U251 CNS and in the assay with SK-MEL-2 melanoma was over 100 µM each time. The TGI is over 100 µM with CCRF-CEM leukemia; over 100 µM with MDA-MB-231 breast; over 100 µM with K-562 leukemia; 5.58 µM with UACC-62 melanoma; over 100 µM in the assay with 786-0 renal; over 100 µM with OVCAR-3 ovarian. In addition, the TGI with HL-60(TB) leukemia, in the assay with IGROV1 ovarian, in the assay on OVCAR-5 ovarian, with UACC-257 melanoma, in the assay with MOLT-4 leukemia and in the assay with ACHN renal was over 100 µM each time.
In the case of `Cc1cccc(Nc2nc3ccccc3nc2NS(=O)(=O)c2ccccc2)c1`, the TGI was over 100 µM in the assay with MCF7 breast; 91.5 µM in the assay on SNB-19 CNS; over 100 µM in the assay on SK-MEL-28 melanoma; over 100 µM with NCI-H226 lung; 59 µM in the assay on U251 CNS; 68.6 µM in the assay with SK-MEL-2 melanoma. Moreover, the TGI in the assay on CCRF-CEM leukemia was 86.5 µM; with MDA-MB-231 breast it was over 100 µM; in the assay on K-562 leukemia, over 100 µM; in the assay with UACC-62 melanoma, over 100 µM; in the assay with MALME-3M melanoma it was over 100 µM; with 786-0 renal, over 100 µM. Further, the TGI in the assay with OVCAR-3 ovarian is 80 µM; in the assay with HL-60(TB) leukemia, 37.8 µM; in the assay on IGROV1 ovarian it was over 100 µM; with OVCAR-5 ovarian, over 100 µM; in the assay on UACC-257 melanoma it was over 100 µM; in the assay on MOLT-4 leukemia, 61.6 µM. Further, the TGI with ACHN renal is over 100 µM.
Consider `COc1cc2c(c(OC)c1OC)C(=O)[C@@H](O)[C@H]2NC(N)=O`, for which the TGI in the assay on MCF7 breast, with SNB-19 CNS, in the assay with SK-MEL-28 melanoma, in the assay with NCI-H226 lung, in the assay with U251 CNS and with CCRF-CEM leukemia was over 100 µM throughout. The TGI with MDA-MB-231 breast, in the assay on K-562 leukemia, with UACC-62 melanoma, in the assay on MALME-3M melanoma, in the assay with 786-0 renal and with OVCAR-3 ovarian was over 100 µM in each case. The TGI in the assay on HL-60(TB) leukemia, in the assay on IGROV1 ovarian, with OVCAR-5 ovarian, in the assay on UACC-257 melanoma, with MOLT-4 leukemia and in the assay with ACHN renal was over 100 µM in each case.
`CN1C(=O)[C@H](c2c[nH]c3ccccc23)[C@H](c2c[nH]c3ccccc23)C1=O`: the TGI in the assay on MCF7 breast was over 100 µM; in the assay with SNB-19 CNS it was over 100 µM; in the assay on SK-MEL-28 melanoma, over 87.6 µM; with NCI-H226 lung, 97.6 µM; in the assay with U251 CNS, over 90.1 µM; in the assay on SK-MEL-2 melanoma, over 55.2 µM. Further, the TGI in the assay with CCRF-CEM leukemia is 87 µM; in the assay on MDA-MB-231 breast it was over 31.8 µM; with K-562 leukemia, over 69.5 µM; in the assay with UACC-62 melanoma, over 54.4 µM; in the assay with MALME-3M melanoma it was over 100 µM; in the assay with 786-0 renal, over 91.4 µM. Besides, the TGI is over 56.5 µM with OVCAR-3 ovarian; over 46.9 µM in the assay with HL-60(TB) leukemia; over 45.3 µM in the assay on IGROV1 ovarian; over 100 µM in the assay on OVCAR-5 ovarian; over 63.8 µM with UACC-257 melanoma; over 77 µM with MOLT-4 leukemia. Further, in the assay on ACHN renal, the TGI is over 66.3 µM.
Turning to `CCOC(=O)[C@@H]1ON2O[C@@H](OC3CCCCC3c3ccccc3)C[C@H]3OC(=O)[C@@H]1C32` (some centres not stated), the TGI was over 100 µM in the assay on MCF7 breast; over 100 µM with A498 renal; over 100 µM in the assay with NCI-H226 lung; over 100 µM with U251 CNS; 21.9 µM in the assay on CCRF-CEM leukemia; over 100 µM in the assay on MDA-MB-231 breast. Further, the TGI in the assay with K-562 leukemia, in the assay on UACC-62 melanoma, with 786-0 renal, in the assay with OVCAR-3 ovarian, with IGROV1 ovarian and in the assay on OVCAR-5 ovarian was over 100 µM throughout. The TGI in the assay on UACC-257 melanoma, with MOLT-4 leukemia and in the assay on ACHN renal was over 100 µM in each case.
Consider `COc1ccc(C(OCC2OC3(COC(c4ccccc4)(c4ccc(OC)cc4)c4ccc(OC)cc4)C(Oc4nc(=O)ccn43)C2O)(c2ccccc2)c2ccc(OC)cc2)cc1` (configuration not stated), for which the TGI in the assay with MCF7 breast, in the assay on SNB-19 CNS, with SK-MEL-28 melanoma, in the assay on NCI-H226 lung, in the assay on U251 CNS and in the assay on SK-MEL-2 melanoma was over 100 µM each time. The TGI in the assay on CCRF-CEM leukemia, in the assay on MDA-MB-231 breast, in the assay with K-562 leukemia, with UACC-62 melanoma, in the assay on MALME-3M melanoma and with 786-0 renal was over 100 µM throughout. The TGI with OVCAR-3 ovarian, in the assay with HL-60(TB) leukemia, with IGROV1 ovarian, with OVCAR-5 ovarian, in the assay on UACC-257 melanoma and in the assay on MOLT-4 leukemia was over 100 µM each time. Also, in the assay on ACHN renal, the TGI is over 100 µM.
For `CC(Cc1ccccc1)N(C)Cc1nc(C2CCC([N+](=O)[O-])O2)no1` (configuration not stated), the TGI in the assay with MCF7 breast was determined as 15.5 µM; in the assay on SNB-19 CNS, 25.2 µM; in the assay with SK-MEL-28 melanoma it was 25.6 µM; in the assay on NCI-H226 lung, 32.4 µM; in the assay on U251 CNS it was 22.9 µM; in the assay on CCRF-CEM leukemia it was 44.8 µM. Further, the TGI came to 9.93 µM in the assay on MDA-MB-231 breast; 22.1 µM in the assay with UACC-62 melanoma; 25.6 µM with MALME-3M melanoma; 24.6 µM in the assay on 786-0 renal; 25.5 µM in the assay on IGROV1 ovarian; 29 µM with OVCAR-5 ovarian. The TGI in the assay on UACC-257 melanoma was 21.2 µM; in the assay with MOLT-4 leukemia, over 100 µM.
In the case of `CC(=O)NC1CC(C(C)(C)NC(C)=O)CC=C1C` (configuration not stated), the TGI with MCF7 breast, in the assay with SNB-19 CNS, in the assay with SK-MEL-28 melanoma, in the assay with U251 CNS, in the assay on CCRF-CEM leukemia and in the assay with MDA-MB-231 breast was over 100 µM in each case. The TGI with K-562 leukemia, in the assay on UACC-62 melanoma, in the assay with 786-0 renal, in the assay with OVCAR-3 ovarian, in the assay with HL-60(TB) leukemia and in the assay with IGROV1 ovarian was over 100 µM in each case. The TGI in the assay on OVCAR-5 ovarian, in the assay with UACC-257 melanoma and in the assay on MOLT-4 leukemia was over 100 µM throughout.

(Values after PubChem BioAssay (NCI).)
